Measured values as given in US8648068B2, “Heterocycloalkyl-containing thienopyrimidines for pharmaceutical compositions” (Boehringer Ingelheim International GmbH, priority 2010, dated 2014).

molecular target: T1, human Mnk2a (Homo sapiens, UniProt Q9HBH9); assay: Mnk2a in vitro kinase assay (indirect fluorescence polarization); type: biochemical; details: GST-Mnk2a pre-activated with ERK2, 20 μM ATP, 30 μM substrate peptide; read-out: MNK2 IC50
T1 construct: made in house; host or cells: E. coli BL21 (vector pGEX-4T1)
How it was run: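 Indirect competitive fluorescence polarization: kinase-generated phospho-product displaces a fluorophore-labelled phospho-peptide from a phospho-specific antibody. Enzyme is N-terminal GST-Mnk2a from E. coli, activated with pre-activated ERK2 and 50 μM ATP; substrate is an amidated 12-mer peptide around eIF4E Ser209.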

T1 sequence (Q9HBH9 whole entry): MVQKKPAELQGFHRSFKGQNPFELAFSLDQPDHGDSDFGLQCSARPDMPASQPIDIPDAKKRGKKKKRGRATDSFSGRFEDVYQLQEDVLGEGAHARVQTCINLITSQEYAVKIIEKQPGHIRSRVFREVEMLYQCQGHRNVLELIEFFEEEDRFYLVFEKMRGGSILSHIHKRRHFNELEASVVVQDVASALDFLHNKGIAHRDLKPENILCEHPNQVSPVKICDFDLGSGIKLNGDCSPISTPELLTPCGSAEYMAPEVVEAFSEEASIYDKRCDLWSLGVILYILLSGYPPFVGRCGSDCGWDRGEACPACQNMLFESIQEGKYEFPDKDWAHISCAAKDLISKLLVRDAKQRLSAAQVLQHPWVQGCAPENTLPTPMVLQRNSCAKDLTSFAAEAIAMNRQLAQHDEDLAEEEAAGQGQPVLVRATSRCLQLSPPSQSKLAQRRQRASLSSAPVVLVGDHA

Structure (SMILES) | IC50
Cc1c(C(=O)NCC2CN(C)CCO2)sc2ncnc(Nc3ccc(F)cc3OC3CCOCC3)c12 (stereo not drawn) [Example 116, 4-[4-Fluoro-2-(tetrahydro-pyran-4-yloxy)-phenylamino]-5-methyl-thieno[2,3-d]pyrimidine-6-carboxylic acid (4-methyl-morpholin-2-ylmethyl)-amide trifluoracetate] | 22 nM
Cc1c(C(=O)NCC2CN(C)CCO2)sc2ncnc(Nc3ccc(F)cc3OC3CCOCC3)c12 (stereo not drawn) [Example 117] | 22 nM
Cc1c(C(=O)NCCCN2CCCC2)sc2ncnc(Nc3ccc(F)cc3OC3CCOCC3)c12 [Example 118] | 29 nM
Cc1c(C(=O)NCCC2CCCN2C)sc2ncnc(Nc3ccc(F)cc3OC3CCOCC3)c12 (stereo not drawn) [Example 119] | 26 nM
Cc1c(C(=O)NCCCN2CCN(C)CC2)sc2ncnc(Nc3ccc(F)cc3OC3CCOCC3)c12 [Example 120] | 22 nM
COC[C@H]1CCCN1CCCNC(=O)c1sc2ncnc(Nc3ccc(F)cc3OC3CCOCC3)c2c1C [Example 121] | 33 nM
COC[C@@H]1CCCN1CCCNC(=O)c1sc2ncnc(Nc3ccc(F)cc3OC3CCOCC3)c2c1C [Example 122] | 48 nM
Cc1c(C(=O)NCC2CCCN(C)C2)sc2ncnc(Nc3ccc(F)cc3OC3CCOCC3)c12 (stereo not drawn) [Example 123] | 38 nM
Cc1c(C(=O)NCCCN2CCC(F)(F)C2)sc2ncnc(Nc3ccc(F)cc3OC3CCOCC3)c12 [Example 124] | 31 nM
Cc1c(C(=O)NCCCN2CC(F)(F)C2)sc2ncnc(Nc3ccc(F)cc3OC3CCOCC3)c12 [Example 125] | 25 nM
Cc1c(C(=O)NCCCN(C)CCN(C)C)sc2ncnc(Nc3ccc(F)cc3OC3CCOCC3)c12 [Example 126] | 26 nM
Cc1c(C(=O)NCC2CNCCO2)sc2ncnc(Nc3ccc(F)cc3OC3CCOCC3)c12 (stereo not drawn) [Example 127] | 17 nM
Cc1c(C(=O)NCC(N)=O)sc2ncnc(Nc3ccc(F)cc3OC3CCOCC3)c12 [Example 128] | 41 nM
Cc1c(C(=O)N[C@H]2CC[C@H](CO)CC2)sc2ncnc(Nc3ccc(F)cc3OC3CCOCC3)c12 [Example 129] | 32 nM
CC(=O)NCCCNC(=O)c1sc2ncnc(Nc3ccc(F)cc3OC3CCOCC3)c2c1C [Example 130] | 36 nM
Cc1c(C(=O)NCCCN2CCCC2=O)sc2ncnc(Nc3ccc(F)cc3OC3CCOCC3)c12 [Example 131] | 35 nM
Cc1c(C(=O)NCC#CCN)sc2ncnc(Nc3ccc(F)cc3OC3CCOCC3)c12 [Example 134] | 16 nM
Cc1c(C(=O)NC(C)C)sc2ncnc(Nc3ccc(F)cc3OC3CCOCC3)c12 [Example 135] | 43 nM
Cc1c(C(=O)N[C@H]2C[C@H]2N)sc2ncnc(Nc3ccc(F)cc3OC3CCOCC3)c12 [Example 136] | 71 nM
Cc1c(C(=O)NCC2(N)CCCC2)sc2ncnc(Nc3ccc(F)cc3OC3CCOCC3)c12 [Example 140] | 92 nM
Cc1c(C(=O)N[C@@H]2CC[C@H](N)C2)sc2ncnc(Nc3ccc(F)cc3OC3CCOCC3)c12 [Example 142] | 38 nM
Cc1c(C(=O)N[C@H]2C[C@H](N)C2)sc2ncnc(Nc3ccc(F)cc3OC3CCOCC3)c12 [Example 143] | 41 nM
Cc1c(C(=O)N[C@H]2C[C@@H]2N)sc2ncnc(Nc3ccc(F)cc3OC3CCOCC3)c12 [Example 144] | 47 nM
CNCCNC(=O)c1sc2ncnc(Nc3ccc(F)cc3OC3CCOCC3)c2c1C [Example 146] | 70 nM
Cc1c(C(=O)N[C@H](C)C(=O)O)sc2ncnc(Nc3ccc(F)cc3OC3CCOCC3)c12 [Example 147] | 15 nM

Structure (SMILES) | IC50
Cc1c(C(=O)N[C@@H](C)C(=O)O)sc2ncnc(Nc3ccc(F)cc3OC3CCOCC3)c12 [Example 148] | 68 nM
Cc1c(C(=O)NCC(=O)O)sc2ncnc(Nc3ccc(F)cc3OC3CCOCC3)c12 [Example 149] | 37 nM
Cc1c(C(=O)NCC2CCC(=O)N2)sc2ncnc(Nc3ccc(F)cc3OC3CCOCC3)c12 (stereo not drawn) [Example 150] | 70 nM
Cc1c(C(=O)NCCn2ccnc2)sc2ncnc(Nc3ccc(F)cc3OC3CCOCC3)c12 [Example 151] | 57 nM
Cc1c(C(=O)NCCCO)sc2ncnc(Nc3ccc(F)cc3OC3CCOCC3)c12 [Example 152] | 40 nM
Cc1c(C(=O)NC(CO)CO)sc2ncnc(Nc3ccc(F)cc3OC3CCOCC3)c12 [Example 153] | 113 nM
Cc1c(C(=O)NCC(C)(C)CN(C)C)sc2ncnc(Nc3ccc(F)cc3OC3CCOCC3)c12 [Example 154] | 215 nM
Cc1c(C(=O)NCCCCO)sc2ncnc(Nc3ccc(F)cc3OC3CCOCC3)c12 [Example 155] | 38 nM
Cc1c(C(=O)NC(C)CO)sc2ncnc(Nc3ccc(F)cc3OC3CCOCC3)c12 (stereo not drawn) [Example 156] | 50 nM
Cc1c(C(=O)NCC(=O)N(C)C)sc2ncnc(Nc3ccc(F)cc3OC3CCOCC3)c12 [Example 157] | 65 nM
Cc1c(C(=O)NCC(C)O)sc2ncnc(Nc3ccc(F)cc3OC3CCOCC3)c12 (stereo not drawn) [Example 158] | 42 nM
Cc1c(C(=O)NCC(F)(F)F)sc2ncnc(Nc3ccc(F)cc3OC3CCOCC3)c12 [Example 159] | 44 nM
CCOCCNC(=O)c1sc2ncnc(Nc3ccc(F)cc3OC3CCOCC3)c2c1C [Example 160] | 59 nM
CCCOCCNC(=O)c1sc2ncnc(Nc3ccc(F)cc3OC3CCOCC3)c2c1C [Example 161] | 56 nM
COCC(C)NC(=O)c1sc2ncnc(Nc3ccc(F)cc3OC3CCOCC3)c2c1C (stereo not drawn) [Example 163] | 60 nM
Cc1c(C(=O)NCC#N)sc2ncnc(Nc3ccc(F)cc3OC3CCOCC3)c12 [Example 164] | 27 nM
Cc1c(C(=O)NCCC(N)=O)sc2ncnc(Nc3ccc(F)cc3OC3CCOCC3)c12 [Example 165] | 39 nM
CNC(=O)CCNC(=O)c1sc2ncnc(Nc3ccc(F)cc3OC3CCOCC3)c2c1C [Example 166] | 37 nM
Cc1c(C(=O)NCCC(=O)N(C)C)sc2ncnc(Nc3ccc(F)cc3OC3CCOCC3)c12 [Example 167] | 43 nM
Cc1c(C(=O)NCCCCCN(C)C)sc2ncnc(Nc3ccc(F)cc3OC3CCOCC3)c12 [Example 168] | 23 nM
Cc1c(C(=O)NCCCc2c[nH]cn2)sc2ncnc(Nc3ccc(F)cc3OC3CCOCC3)c12 [Example 169] | 38 nM
Cc1c(C(=O)N[C@H]2CC[C@@](C)(O)CC2)sc2ncnc(Nc3ccc(F)cc3OC3CCOCC3)c12 [Example 170] | 125 nM
Cc1c(C(=O)NCCc2cnn(C)c2)sc2ncnc(Nc3ccc(F)cc3OC3CCOCC3)c12 [Example 171] | 41 nM
Cc1c(C(=O)NCC2CCOCC2)sc2ncnc(Nc3ccc(F)cc3OC3CCOCC3)c12 [Example 172] | 43 nM
Cc1c(C(=O)N[C@H]2CC[C@H](O)CC2)sc2ncnc(Nc3ccc(F)cc3OC3CCOCC3)c12 [Example 173] | 39 nM

Structure (SMILES) | IC50
Cc1c(C(=O)NC2CCN(C)CC2)sc2ncnc(Nc3ccc(F)cc3OC3CCOCC3)c12 [Example 174] | 60 nM
CNC(=O)CNC(=O)c1sc2ncnc(Nc3ccc(F)cc3OC3CCOCC3)c2c1C [Example 175] | 50 nM
Cc1c(C(=O)NCCN2CCCC2=O)sc2ncnc(Nc3ccc(F)cc3OC3CCOCC3)c12 [Example 176] | 105 nM
Cc1c(C(=O)NC2CCN(C)C2)sc2ncnc(Nc3ccc(F)cc3OC3CCOCC3)c12 (stereo not drawn) [Example 177] | 67 nM
Cc1c(C(=O)NCC2(O)CC2)sc2ncnc(Nc3ccc(F)cc3OC3CCOCC3)c12 [Example 178] | 47 nM
Cc1c(C(=O)NCCn2cc[nH]c2=O)sc2ncnc(Nc3ccc(F)cc3OC3CCOCC3)c12 [Example 179] | 166 nM
Cc1c(C(=O)NCCS(C)(=O)=O)sc2ncnc(Nc3ccc(F)cc3OC3CCOCC3)c12 [Example 180] | 33 nM
Cc1c(C(=O)NCC#CCN(C)C)sc2ncnc(Nc3ccc(F)cc3OC3CCOCC3)c12 [Example 181] | 21 nM
Cc1c(C(=O)NCc2cc[nH]n2)sc2ncnc(Nc3ccc(F)cc3OC3CCOCC3)c12 [Example 182] | 30 nM
Cc1c(C(=O)NCCn2cccn2)sc2ncnc(Nc3ccc(F)cc3OC3CCOCC3)c12 [Example 183] | 51 nM
Cc1c(C(=O)NCc2cn(C)cn2)sc2ncnc(Nc3ccc(F)cc3OC3CCOCC3)c12 [Example 184] | 22 nM
Cc1c(C(=O)NCc2cnco2)sc2ncnc(Nc3ccc(F)cc3OC3CCOCC3)c12 [Example 186] | 30 nM
Cc1c(C(=O)NCc2ncco2)sc2ncnc(Nc3ccc(F)cc3OC3CCOCC3)c12 [Example 187] | 27 nM
Cc1c(C(=O)NCCNS(C)(=O)=O)sc2ncnc(Nc3ccc(F)cc3OC3CCOCC3)c12 [Example 189] | 25 nM
Cc1c(C(=O)NCC(C)(C)O)sc2ncnc(Nc3ccc(F)cc3OC3CCOCC3)c12 [Example 190] | 66 nM
Cc1c(C(=O)N[C@H]2CC[C@@H](O)CC2)sc2ncnc(Nc3ccc(F)cc3OC3CCOCC3)c12 [Example 191] | 47 nM
Cc1c(C(=O)NC2CCCC(O)C2)sc2ncnc(Nc3ccc(F)cc3OC3CCOCC3)c12 (stereo not drawn) [Example 192] | 42 nM
Cc1c(C(=O)NCCCS(C)(=O)=O)sc2ncnc(Nc3ccc(F)cc3OC3CCOCC3)c12 [Example 193] | 33 nM
Cc1c(C(=O)NC2(CO)CC2)sc2ncnc(Nc3ccc(F)cc3OC3CCOCC3)c12 [Example 194] | 63 nM
Cc1c(C(=O)NCCc2cn[nH]c2O)sc2ncnc(Nc3ccc(F)cc3OC3CCOCC3)c12 [Example 195] | 67 nM
Cc1c(C(=O)NCCS(N)(=O)=O)sc2ncnc(Nc3ccc(F)cc3OC3CCOCC3)c12 [Example 196] | 34 nM
Cc1c(C(=O)NCC2CCCOC2)sc2ncnc(Nc3ccc(F)cc3OC3CCOCC3)c12 (stereo not drawn) [Example 197] | 28 nM
Cc1c(C(=O)NCc2cocn2)sc2ncnc(Nc3ccc(F)cc3OC3CCOCC3)c12 [Example 198] | 29 nM
Cc1c(C(=O)NCC2CNC(=O)C2)sc2ncnc(Nc3ccc(F)cc3OC3CCOCC3)c12 (stereo not drawn) [Example 199] | 30 nM
Cc1c(C(=O)NC2CN(C)C2)sc2ncnc(Nc3ccc(F)cc3OC3CCOCC3)c12 [Example 200] | 69 nM
